From patent US20240075140A1, “ENGINEERED NK CELLS AND METHODS OF TREATING CANCER” (American Gene Technologies Intemational Inc, priority 2021, published 2024)

System: Daudi cells
Test: CD107a response of Mitomycin C treated S76 to Daudi cells
Format: cell-based
Conditions: various concentrations, 1 or 2 hours; Daudi 2:1, 4 hours
Procedure: Cloned S76 cells were treated with MMC at various concentration for 1 or 2 hours. After MMC treatment, S76 was mixed with Daudi cells at a 2:1 ratio for 4 hours. CD107a was measured by flow cytometry. For detecting CD107a, cells were washed, resuspended in 50-100 μl of staining buffer, and stained with mouse anti-human Vδ2-PE clone B6 and mouse anti-human CD107a-APC clone H4A3. Cells were washed with staining buffer and resuspended. Data for at least 1×10^4 lymphocytes (gated on the basis of forward- and side-scatter profiles) were acquired from each sample on a FACSCalibur flow cytometer (BD Biosciences). All samples were analyzed using FlowJo software.

## CO[C@@]12[C@H](COC(N)=O)C3=C(C(=O)C(C)=C(N)C3=O)N1C[C@@H]1N[C@@H]12 [MMC, Mitomycin C]
  effect of Mitomycin C treatment on function of clone S76 (CD107a response to Daudi): did not significantly impair the function
